Measured values: ChEMBL document CHEMBL6078680, “Improving the Stability and Anti-Infective Activity of Sea Turtle AMPs Using Multiple Structural Modification Strategies” (J Med Chem, 2024)
The source made the active and inactive calls. The calls are words filed in the database; no cut-off is given here. Starred links: 1 amine or outer side, 2 acyl side, 3 side chain; linkers in the order of their positions; H or OH if unused. Positions of bridges follow the written chain, without caps; N, C: chain ends. Non-standard residues stand in square brackets, D forms with d. Residues, ends and D or L forms follow the SMILES beside them. X1 = C[C@@](CCCCC=[*:3])(N[*:1])C(=O)[*:2]; hArg = N=C(N)NCCCC[C@H](N)C(=O)O

How the values were obtained:
[1] = Hemolytic activity at human Erythrocyte assessed as hemolysis at 100 microg/ml; assay type: toxicity, cell-based; conditions: erythrocytes, at 100 µg/mL, read-out: Activity
Peritoneal macrophage [2] = assay: Antiinflammatory activity in mouse Peritoneal macrophage cells assessed as inhibition of LPS-induced TNF-alpha production at 20 microg/ml incubated for 6 hrs by ELISA analysis; assay type: functional, cell-based; conditions: dose 20.0 µg/ml
Peritoneal macrophage [3] = assay: Antiinflammatory activity in mouse Peritoneal macrophage cells assessed as inhibition of LPS-induced IL-6 production at 20 microg/ml incubated for 6 hrs by ELISA analysis; assay type: functional, cell-based; conditions: dose 20.0 µg/ml
Trypsin [4] = target: T1, Trypsin (Homo sapiens, UniProt P07477+P07478+P35030); assay: Stability of compound assessed as trypsin (unknown origin) mediated drug degradation […] measured at 24 hrs by RP-HPLC analysis; assay type: ADME, protein assay; conditions: read-out: Activity
Staphylococcus aureus [5] = assay: Antimicrobial activity against Staphylococcus aureus CMCC 26003 at 5 times MIC measured at 180 mins; assay type: functional, organism-based
Acinetobacter baumannii [6] = assay: Antibiofilm activity against Acinetobacter baumannii ATCC 19606 assessed as inhibition of biofilm formation at 0.5 times MIC incubated for 48 hrs by crystal violet staining based analysis; assay type: functional
Staphylococcus aureus [7] = assay: Antibiofilm activity against Staphylococcus aureus CMCC 26003 assessed as biofilm eradication at 0.5 to 2 times MIC incubated for 24 hrs by crystal violet staining based analysis; assay type: functional
Staphylococcus aureus [8] = assay: Antipersister-activity against Staphylococcus aureus CMCC 26003 assessed as elimination of persister cells at 50 times MIC preincubated adherent persistent cells with colistin incubation for 24 hrs; assay type: functional
Peritoneal macrophage [9] = assay: Cytotoxicity against mouse Peritoneal macrophage cells assessed as survival rate at 100 microg/ml; assay type: functional; conditions: read-out: Survival
HaCaT = assay: Cytotoxicity against human HaCaT cells assessed as survival rate at 100 microg/ml; assay type: functional; conditions: read-out: Survival
Staphylococcus aureus [10] = assay: Antimicrobial activity against Staphylococcus aureus CMCC 26003 measured at 8 hrs in presence of mouse serum; assay type: functional, organism-based
[11] = Acute toxicity in BALB/c mouse assessed as effect on BUN level at 10 mg/kg, iv measured for 24 hrs; assay type: organism-based; conditions: in vivo
Escherichia coli [12] = assay: Antimicrobial activity against Escherichia coli ATCC 25922 measured at 8 hrs in presence of mouse serum; assay type: functional, organism-based
Trypsin [13] = target: T1, Trypsin; assay: Stability of compound assessed as trypsin (unknown origin) mediated drug degradation […] measured after 24 hrs by RP-HPLC analysis; assay type: ADME, protein assay; conditions: read-out: Activity
Peritoneal macrophage [14] = assay: Antiinflammatory activity in mouse Peritoneal macrophage cells assessed as inhibition of LPS-induced IL-6 production my measuring fold change at 20 microg/ml incubated for 6 hrs by ELISA analysis; assay type: functional; conditions: dose 20 µg/ml
Enterococcus faecium = assay: Antimicrobial activity against Enterococcus faecium 34 assessed as reduction in microbial growth incubated for 18 hrs by broth microdilution method; assay type: functional
Escherichia coli [15] = assay: Antimicrobial activity against Escherichia coli ATCC 25922 assessed as reduction in microbial growth incubated for 18 hrs by broth microdilution method; assay type: functional
Escherichia coli [16] = assay: Antimicrobial activity against Escherichia coli CMCC44102 assessed as reduction in microbial growth incubated for 18 hrs by broth microdilution method; assay type: functional
Acinetobacter baumannii [17] = assay: Antimicrobial activity against Acinetobacter baumannii ATCC19606 assessed as reduction in microbial growth incubated for 18 hrs by broth microdilution method; assay type: functional
Pseudomonas aeruginosa = assay: Antimicrobial activity against Pseudomonas aeruginosa CMCC10104 assessed as reduction in microbial growth incubated for 18 hrs by broth microdilution method; assay type: functional
Salmonella enteritidis = assay: Antimicrobial activity against Salmonella enterica subsp. enterica serovar Enteritidis ATCC 14028 assessed as reduction in microbial growth incubated for 18 hrs by broth microdilution method; assay type: functional
Staphylococcus aureus [18] = assay: Antimicrobial activity against Staphylococcus aureus CMCC 26003 assessed as reduction in microbial growth incubated for 18 hrs by broth microdilution method; assay type: functional
Clostridium perfringens = assay: Antimicrobial activity against Clostridium perfringens ATCC 13124 assessed as reduction in microbial growth incubated for 18 hrs by broth microdilution method; assay type: functional
Staphylococcus aureus [19] = assay: Antimicrobial activity against Staphylococcus aureus ATCC 43300 assessed as reduction in microbial growth incubated for 18 hrs by broth microdilution method; assay type: functional
Enterococcus faecalis = assay: Antimicrobial activity against Enterococcus faecalis ATCC 29217 assessed as reduction in microbial growth incubated for 18 hrs by broth microdilution method; assay type: functional
[20] = tested on: Staphylococcus epidermidis; assay: Antimicrobial activity against Staphylococcus epidermidis assessed as reduction in microbial growth incubated for 18 hrs by broth microdilution method; assay type: functional
Staphylococcus aureus [21] = assay: Antimicrobial activity against Staphylococcus aureus 08032706 assessed as reduction in microbial growth incubated for 18 hrs by broth microdilution method; assay type: functional
Staphylococcus aureus [22] = assay: Antimicrobial activity against Staphylococcus aureus CMCC 26003 at 5 times MIC by time kill assay; assay type: functional, organism-based; conditions: time 180.0 min

Row | SMILES | hemolysis at 100 microg/ml [1] | Activity (Peritoneal macrophage [2]) | Activity (Peritoneal macrophage [3]) | Activity (Staphylococcus aureus [5]) | viability at 100 µg/mL (Peritoneal macrophage [9]) | viability at 100 µg/mL (HaCaT) | Activity (Staphylococcus aureus [10]) | other results
1 | CC[C@@H](C)[C@@H](NC(=O)[C@@H](CCCNC(=N)N)NC(=O)[C@@H](CO)NC(=O)[C@@H](Cc1c[nH]cn1)NC(=O)[C@@H](CCCNC(=N)N)NC(=O)[C@@H](CC(C)C)NC(=O)[C@H](NC(=O)[C@@H](CCCNC(=N)N)NC(=O)CNC(=O)[C@@H](CC(C)C)NC(=O)[C@@H](CCC(N)=O)NC(=O)[C@@H](CCCCN)NC(=O)[C@@H](CCCNC(=N)N)NC(=O)[C@H](NC(=O)[C@@H](CCCCN)NC(=O)[C@@H](CCCCN)NC(=O)[C@H](N)Cc1ccccc1)C(C)C)C(C)C)C(=O)N[C@@H](C(=O)N[C@@H](C(=O)NCC(=O)NCC(=O)N[C@H](CCCNC(=N)N)C(=O)N[C@H](CCSC)C(=O)N[C@H](CCCNC(=N)N)C(=O)N[C@H](Cc1ccccc1)C(=O)O)C(C)C)[C@H](C)O | < 5% | Active | Active | inactive | – | – | – | metabolised at 24 h (Trypsin [4]): < 60%; inhibition (INH) (Acinetobacter baumannii [6]): 10%; Activity (Staphylococcus aureus [7]): 20%; Activity (Staphylococcus aureus [8]): 50%
2 | CC[C@H](C)[C@H](NC(=O)[C@H](CCCNC(=N)N)NC(=O)[C@H](CO)NC(=O)[C@H](Cc1c[nH]cn1)NC(=O)[C@H](CCCNC(=N)N)NC(=O)[C@@H]1CSSC[C@H](NC(=O)[C@H](CCCCN)NC(=O)[C@@H](N)Cc2ccccc2)C(=O)N[C@@H](CCCCN)C(=O)N[C@@H](C(C)C)C(=O)N[C@@H](CCCNC(=N)N)C(=O)N[C@@H](CCCCN)C(=O)N[C@@H](CCC(N)=O)C(=O)N[C@@H](CC(C)C)C(=O)NCC(=O)N[C@@H](CCCNC(=N)N)C(=O)N[C@@H](C(C)C)C(=O)N[C@@H](CC(C)C)C(=O)N1)C(=O)N[C@H](C(=O)N[C@H](C(=O)NCC(=O)NCC(=O)N[C@@H](CCCNC(=N)N)C(=O)N[C@@H](CCSC)C(=O)N[C@@H](CCCNC(=N)N)C(=O)N[C@@H](Cc1ccccc1)C(=O)O)C(C)C)[C@@H](C)O (H-FKCKVRKQLGRVLCRHSRITVGGRMRF-OH; disulfide 3-14) | < 5% | Active | Active | inactive | > 80% | > 80% | inactive | Activity [11]: Non-toxic
3 | CC[C@H](C)[C@@H]1NC(=O)[C@H](CCCNC(=N)N)NC(=O)[C@H](CO)NC(=O)[C@@H](NC(=O)[C@H](Cc2c[nH]cn2)NC(=O)[C@H](CCCNC(=N)N)NC(=O)[C@H](CC(C)C)NC(=O)[C@@H](NC(=O)[C@H](CCCNC(=N)N)NC(=O)CNC(=O)[C@H](CC(C)C)NC(=O)[C@H](CCC(N)=O)NC(=O)[C@H](CCCCN)NC(=O)[C@H](CCCNC(=N)N)NC(=O)[C@@H](NC(=O)[C@H](CCCCN)NC(=O)[C@H](CCCCN)NC(=O)[C@@H](N)Cc2ccccc2)C(C)C)C(C)C)CSSC[C@@H](C(=O)O)NC(=O)[C@H](Cc2ccccc2)NC(=O)[C@H](CCCNC(=N)N)NC(=O)[C@H](CCSC)NC(=O)[C@H](CCCNC(=N)N)NC(=O)CNC(=O)CNC(=O)[C@H](C(C)C)NC(=O)[C@H]([C@@H](C)O)NC1=O (H-FKKVRKQLGRVLRHCSRITVGGRMRFC-OH; disulfide 15-27) | < 5% | Active | Active | inactive | > 80% | > 80% | inactive | Activity (Escherichia coli [12]): inactive
4 | CC[C@H](C)[C@H](NC(=O)[C@H](CCCCNC(=N)N)NC(=O)[C@H](CO)NC(=O)[C@H](Cc1c[nH]cn1)NC(=O)[C@H](CCCCNC(=N)N)NC(=O)[C@H](CC(C)C)NC(=O)[C@@H](NC(=O)[C@H](CCCCNC(=N)N)NC(=O)CNC(=O)[C@H](CC(C)C)NC(=O)[C@H](CCC(N)=O)NC(=O)[C@H](CCCCNC(=N)N)NC(=O)[C@H](CCCCNC(=N)N)NC(=O)[C@@H](NC(=O)[C@H](CCCCNC(=N)N)NC(=O)[C@H](CCCCNC(=N)N)NC(=O)[C@@H](N)Cc1ccccc1)C(C)C)C(C)C)C(=O)N[C@H](C(=O)N[C@H](C(=O)NCC(=O)NCC(=O)N[C@@H](CCCCNC(=N)N)C(=O)N[C@@H](CCSC)C(=O)N[C@@H](CCCCNC(=N)N)C(=O)N[C@@H](Cc1ccccc1)C(=O)O)C(C)C)[C@@H](C)O (H-F[hArg][hArg]V[hArg][hArg]QLG[hArg]VL[hArg]HS[hArg]ITVGG[hArg]M[hArg]F-OH) | < 5% | Active | Active | inactive | – | – | – | metabolised at 24 h (Trypsin [13]): ~20%
5 | CC[C@H](C)[C@H](NC(=O)[C@H](CCCNC(=N)N)NC(=O)[C@H](CO)NC(=O)[C@H](Cc1c[nH]cn1)NC(=O)[C@H](CCCNC(=N)N)NC(=O)[C@H](CC(C)C)NC(=O)[C@@H](NC(=O)[C@H](CCCNC(=N)N)NC(=O)CNC(=O)[C@H](CC(C)C)NC(=O)[C@H](CCC(N)=O)NC(=O)[C@H](CCCCN)NC(=O)[C@]1(C)CCCC/C=C\CCCC[C@](C)(N)C(=O)N[C@@H](CCCCN)C(=O)N[C@@H](CCCCN)C(=O)N[C@@H](C(C)C)C(=O)N1)C(C)C)C(=O)N[C@H](C(=O)N[C@H](C(=O)NCC(=O)NCC(=O)N[C@@H](CCCNC(=N)N)C(=O)N[C@@H](CCSC)C(=O)N[C@@H](CCCNC(=N)N)C(=O)N[C@@H](Cc1ccccc1)C(=O)O)C(C)C)[C@@H](C)O (H-[X1]KKV[X1]KQLGRVLRHSRITVGGRMRF-OH; staple (Z) 1-5) | < 5% | Active | Active | inactive | – | – | – | fold change (FC) (Peritoneal macrophage [14]): 2
6 | CC1(C)S[C@@H]2[C@H](NC(=O)[C@H](N)c3ccccc3)C(=O)N2[C@H]1C(=O)O [AMPICILLIN] | – | – | – | – | – | – | – | MIC (Enterococcus faecium): < 0.78 µg/mL; MIC (Escherichia coli [15]): 2.34 µg/mL; MIC (Escherichia coli [16]): 2.34 µg/mL; MIC (Acinetobacter baumannii [17]): > 100 µg/mL; MIC (Pseudomonas aeruginosa): > 100 µg/mL; MIC (Salmonella enteritidis): 1.17 µg/mL; MIC (Staphylococcus aureus [18]): < 0.78 µg/mL; MIC (Clostridium perfringens): 2.34 µg/mL; MIC (Staphylococcus aureus [19]): 9.38 µg/mL; MIC (Enterococcus faecalis): < 0.78 µg/mL; MIC [20]: 2.34 µg/mL; MIC (Staphylococcus aureus [21]): < 0.78 µg/mL; AC30 (Staphylococcus aureus [22]): Active
